One data set concerns SA121 hESCs. As to the kind of experiment: General (monolayer) differentiation on matrigel in defined media, qRT-PCR of stem cell and differentiation markers after 14 days. The format is cell-based, human. Also noted: key to NO EHNA EFFECT: X: NO EHNA EFFECT; key to Full EHNA effect: those which maintained at least 50% of the level of NANOG-expression in comparison to EHNA and those that inhibited the expression of PAX6 to 50% or less than the value untreated controls were considered to have an EHNA-like effect. Particulars: for Full EHNA effect: NANOG at least 50% of EHNA level and PAX6 50% or less of untreated control; for PARTIAL EHNA EFFECT (PAX6): only PAX6 50% or less of untreated control; for NO EHNA EFFECT: neither NANOG nor PAX6 criterion met. The method, then:
In order to ascertain the efficacy of the compounds of the present invention, each compound was tested to determine whether it can maintain the stem cell marker NANOG and/or block the differentiation marker PAX6 in the face of differentiating conditions in a manner similar to EHNA. Cells enzymatically passaged onto matrigel-coated dishes and grown for 2 weeks in defined media with or without (control) compound addition were analysed by qRT-PCR to determine the level of NANOG and PAX6 expression.
For general differentiation experiments cells were passaged with trypsin onto matrigel coated twelve-well dishes in the fully supportive media (see above). The media was then changed to defined media 24 h later and any experimental component was first added at this point. The media and experimental supplement were changed daily.
Cells were routinely harvested for qRT-PCR analysis 14 days after the first addition of the experimental compound.
Total RNA was extracted using QIAGEN RNeasy kits (Qiagen Inc, Valencia, Calif., http://www.qiagen.com) and DNaseI treatment was performed using Turbo DNA-Free (Ambion). The absence of genomic DNA was confirmed by quantitative PCR (qPCR) (see below) using glyceraldehyde-3-phosphate dehydrogenase (GAPDH) Taqman primers and probe (MWG). cDNA was synthesized with 2 μg total RNA in 20 μl using Superscript II according to manufacturers' instructions ((Carlsbad, Calif., http://www.Invitrogen.com)). For qPCR, cDNAs were diluted 1 in 60 and 5 μl used per sample in a 15 μl total reaction volume. Platinum pPCR supermix UDG with Rox (Carlsbad, Calif., http://www.Invitrogen.com) was used according to the manufacturer's instructions using an Applied Biosystems 7300 real time PCR system (Applied Biosystems, Warrington, UK, http://europe.appliedbiosystems.com). Each reaction contained 0.6 μM of each primer and Taqman probe (MWG). Biological and technical replicates were each performed in triplicate for each sample, standardised to the GAPDH housekeeping gene and relative expression values were calculated using the 7300 system SDS software (Applied Biosystems, Warrington, UK, http://europe.appliedbiosystems.com).
Cells were enzymatically passaged onto matrigel-coated dishes and grown for 2 weeks in defined media. After 14 days, qRT-PCR was utilised to analyse the expression of a variety of markers of pluripotency and differentiation. In the graphs in FIG. 9 the value 1 was set to the expression level of the gene in undifferentiated SA121 hESCs.
Cells were enzymatically passaged onto matrigel-coated dishes and grown for 2 weeks in defined media (1× confluent T25 tissue culture flask was passaged to 2×12 well dishes) with or without (control) compound addition. All compounds were added at 10 uM and each was performed in triplicate. Media and compounds were changed every 48 hours. After 14 days RNA was isolated and qRT-PCR was utilised to analyse the expression of NANOG and PAX6. The results are illustrated in FIGS. 13 to 17.
In the graphs in FIGS. 13, 14 15, 16 and 17 the value 1 was set relative to the expression level of the gene in the control (no compound) samples. […] This experiment allowed the effect of the EHNA-related compounds to be measured directly in comparison to EHNA. […] Those which had on effect, to these levels, on either PAX6 or NANOG were considered to have a partial-EHNA effect.

The nature of data set [1]: Solubility in 5% DMSO-water. Format: physicochemical.

Structures are written as SMILES.

This is an account of results in patent US20120202287A1, “Stem Cell Culture Methods” (priority 2009, published 2012).

`CCCCCCCCn1ncc2c(N)ncnc21.Cl` [HWC40, 1-octyl-1H-pyrazolo[3,4-d]pyrimidin-4-amine hydrochloride]: in the data set with SA121 hESCs (10 uM, 14 days, qRT-PCR), the “Full EHNA effect” value is listed as “X”.
As to `CCCCCCCCn1cc2c(N)ncnc2n1.Cl` [HWC41, 2-octyl-2H-pyrazolo[3,4-d]pyrimidin-4-amine hydrochloride], the “Full EHNA effect” value in the data set with SA121 hESCs (10 uM, 14 days, qRT-PCR) is given as “X”.
For `C[C@H]([C@@H](O)CCc1ccccc1)n1cnc2c(N)ncnc21.Cl` [HWC42, (3S,4R)-4-(6-amino-9H-purin-9-yl)-1-phenylpentan-3-ol hydrochloride], the “PARTIAL EHNA EFFECT (PAX6)” value with SA121 hESCs (10 uM, 14 days, qRT-PCR) is “X (Those which had on effect, to these levels, on either PAX6 or NANOG were considered to have a partial-EHNA effect)”.
As to `COc1ncnc2c1ncn2[C@H](C)[C@@H](O)CCc1ccccc1.Cl` [HWC43, (3S,4R)-4-(6-methoxy-9H-purin-9-yl)-1-phenylpentan-3-ol hydrochloride], the “NO EHNA EFFECT” value in the data set on SA121 hESCs (10 uM, 14 days, qRT-PCR) was “X”.
In the case of `C[C@H](O)[C@@H](CCc1ccccc1)n1cnc2c(N)ncnc21.Cl` [HWC44, (2S,3R)-3-(6-amino-9H-purin-9-yl)-5-phenylpentan-2-ol hydrochloride], in the data set with SA121 hESCs (10 uM, 14 days, qRT-PCR), the “NO EHNA EFFECT” value is listed as “X”.
On the same count and under the same terms, to `COc1ncnc2c1ncn2[C@H](CCc1ccccc1)[C@H](C)O.Cl` [HWC45, (2S,3R)-3-(6-methoxy-9H-purin-9-yl)-5-phenylpentan-2-ol hydrochloride] belongs “X”.
For the compound `CCCCCC[C@H]([C@H](C)O)n1cnc2c(N)ncnc21` [HWC46, (2S,3R)-3-(6-amino-9H-purin-9-yl)nonan-2-ol], the “Full EHNA effect” value in the data set with SA121 hESCs (10 uM, 14 days, qRT-PCR) was “X”.
With `CCCCCC[C@H]([C@H](C)O)n1cnc2c(OC)ncnc21` [HWC47, (2S,3R)-3-(6-methoxy-9H-purin-9-yl)nonan-2-ol], in the data set on SA121 hESCs (10 uM, 14 days, qRT-PCR), the “NO EHNA EFFECT” value is recorded as “X”.
With `CCCCCC[C@H](O)[C@@H](C)n1cnc2c(N)ncnc21` [HWC48, (2R,3S)-2-(6-amino-9H-purin-9-yl)nonan-3-ol], the “PARTIAL EHNA EFFECT (PAX6)” value with SA121 hESCs (10 uM, 14 days, qRT-PCR) was “X (Those which had on effect, to these levels, on either PAX6 or NANOG were considered to have a partial-EHNA effect)”.
For the compound `CCCCCC[C@H](O)[C@@H](C)n1cnc2c(OC)ncnc21` [HWC49, (2R,3S)-2-(6-methoxy-9H-purin-9-yl)nonan-3-ol], the “NO EHNA EFFECT” value with SA121 hESCs (10 uM, 14 days, qRT-PCR) is recorded as “X”.
As to `CCCCCC[C@@H](O)[C@H](C)n1cnc2c(N)ncnc21` [HWC50, (2S,3R)-2-(6-amino-9H-purin-9-yl)nonan-3-ol], the “PARTIAL EHNA EFFECT (PAX6)” value in the data set on SA121 hESCs (10 uM, 14 days, qRT-PCR) is listed as “X (Those which had on effect, to these levels, on either PAX6 or NANOG were considered to have a partial-EHNA effect)”.
Turning to `CCCCCC[C@@H](O)[C@H](C)n1cnc2c(OC)ncnc21` [HWC51, (2S,3R)-2-(6-methoxy-9H-purin-9-yl)nonan-3-ol], the “NO EHNA EFFECT” value in the data set with SA121 hESCs (10 uM, 14 days, qRT-PCR) was “X”.
Take `CCCCCC[C@@H]([C@@H](C)O)n1cnc2c(N)ncnc21` [HWC52, (2R,3S)-3-(6-amino-9H-purin-9-yl)nonan-2-ol]: the “PARTIAL EHNA EFFECT (PAX6)” value in the data set with SA121 hESCs (10 uM, 14 days, qRT-PCR) was “X (Those which had on effect, to these levels, on either PAX6 or NANOG were considered to have a partial-EHNA effect)”.
In the case of `CCCCCC[C@@H]([C@@H](C)O)n1cnc2c(OC)ncnc21` [HWC53, (2R,3S)-3-(6-methoxy-9H-purin-9-yl)nonan-2-ol], in the data set on SA121 hESCs (10 uM, 14 days, qRT-PCR), the “NO EHNA EFFECT” value is listed as “X”.
Take `CCCCC[C@H](O)[C@@H](C)n1cnc2c(N)ncnc21` [HWC58, (2R,3S)-2-(6-amino-9H-purin-9-yl)octan-3-ol]: the “PARTIAL EHNA EFFECT (NANOG)” value in the data set with SA121 hESCs (10 uM, 14 days, qRT-PCR, only NANOG at least 50% of EHNA level) is on record as “X (Those which had on effect, to these levels, on either PAX6 or NANOG were considered to have a partial-EHNA effect)”.
`CCCCC[C@H]([C@H](C)O)n1cnc2c(N)ncnc21` [HWC59, (2S,3R)-3-(6-amino-9H-purin-9-yl)octan-2-ol]: the “NO EHNA EFFECT” value with SA121 hESCs (10 uM, 14 days, qRT-PCR) is “X”.
Same read-out and setting: the result for `CCC[C@H]([C@H](C)O)n1cnc2c(N)ncnc21` [HWC60, (2S,3R)-3-(6-Amino-9H-purin-9-yl)hexan-2-ol] reads “X”; that for `CCC[C@H](O)[C@@H](C)n1cnc2c(N)ncnc21` [HWC61, (2R,3S)-2-(6-amino-9H-purin-9-yl)hexan-3-ol], “X”.
Regarding `CCCCCCCCCCn1cnc2c(N)ncnc21` [HWC64, 9-(decan-1-yl)-9H-purin-6-amine], in the data set on SA121 hESCs (10 uM, 14 days, qRT-PCR), the “Full EHNA effect” value is “X”.
In the case of `CCCCCCCCCCn1cc2c(N)ncnc2n1` [HWC-3, 2-decyl-2H-pyrazolo[3,4-d]pyrimidin-4-amine], the “solubility in 5% DMSO-water” value in data set [1] was “poor solubility”.
Turning to `CCCCCCC(C(C)O)n1cnc2cccnc21.Cl` (stereo not shown) [HWC-5, 3-(3H-imidazo[4,5-b]pyridin-3-yl)nonan-2-ol hydrochloride], the “prevention of differentiation of hESCs” value with SA121 hESCs (FIG. 10) is on record as “can prevent differentiation of hESCs”. The “PAX6 expression in differentiating conditions” value in the data set with SA121 hESCs (qRT-PCR, 14 days) is “inhibiting PAX6 expression”. Besides, the “NANOG expression in differentiating conditions” value with SA121 hESCs (qRT-PCR, 14 days, relative to untreated control) is recorded as “capable of maintaining NANOG”.
For the compound `CC(C)Cn1c(=O)n(C)c(=O)c2[nH]cnc21` [IBMX, 3-Isobutyl-1-methylxanthine, reference compound], the “PAX6 expression in differentiating conditions” value with SA121 hESCs (qRT-PCR, 14 days) was “nor did they inhibit PAX6 induction”. The “stem cell marker expression (NANOG, ZFP42, POU5F1) in differentiating conditions” value in the data set on SA121 hESCs (qRT-PCR, 14 days, FIG. 9a) is reported as “Neither BAY nor IBMX maintained stem cell marker expression”.
